Some test systems named below: XF 498 CNS; HOP-18 NSCLC; DMS 114 small cell lung; DLD-1 colon; LXFL 529 NSCLC; SNB-78 CNS.
Assay in all cases: NCI-60 cell line screen, 48 h

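Growth conditions: 96-well plates. Treatment: test compound, 48 hours, 5 concentrations. Analysis: linear interpolation between bracketing concentrations; unreached endpoints set to highest concentration. The concentration for 50% growth inhibition is given as GI50. At the TGI there is no net growth.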

Regarding `c1cnc2c(c1)-n1cccc1C1(CCSCC1)NN2`, the TGI in the assay with XF 498 CNS and in the assay with HOP-18 NSCLC was over 100 µM in each case.

`COc1cc(-c2cc(=O)c3cc4c(cc3[nH]2)OCO4)cc(OC)c1OC`: the TGI with XF 498 CNS, with DMS 114 small cell lung, in the assay on DLD-1 colon, in the assay on LXFL 529 NSCLC, in the assay on SNB-78 CNS and in the assay on HOP-18 NSCLC was over 100 µM throughout. The GI50 with DMS 114 small cell lung was 83.8 µM.

Consider `CCCC(=O)c1c(NOC2OC(COC(C)=O)C(OC(C)=O)C(OC(C)=O)C2OC(C)=O)nc(OC)n(C)c1=O` (centres undefined), for which the TGI in the assay with XF 498 CNS, in the assay with DMS 114 small cell lung, with DLD-1 colon, in the assay on LXFL 529 NSCLC and with SNB-78 CNS was over 100 µM in each case.

Consider `COc1ccc(-c2c(C3=NCCN3)nnn2-c2ccccc2)cc1`, for which the TGI in the assay on XF 498 CNS, in the assay with DMS 114 small cell lung, with DLD-1 colon, in the assay on LXFL 529 NSCLC, in the assay with SNB-78 CNS and with HOP-18 NSCLC was over 100 µM throughout.

Turning to `Nc1ccc(C(=O)N/C(=C\C=C\c2ccco2)c2nc3[nH]c(=S)[nH]c(=O)c3[nH]2)cc1`, the TGI in the assay with XF 498 CNS, in the assay with DLD-1 colon, with LXFL 529 NSCLC and in the assay with SNB-78 CNS was over 100 µM in each case.

In the case of `CCN(CC)CCC1CC/C(=C\c2ccc(OC)cc2)C1=O` (centres undefined), the TGI with XF 498 CNS, in the assay with DMS 114 small cell lung, with DLD-1 colon, in the assay on LXFL 529 NSCLC, with SNB-78 CNS and in the assay with HOP-18 NSCLC was over 100 µM in each case.

With `COC1=CC23C=CC1[C@@H](c1ccccc1)C2=C(C)C(=O)N3C(=O)NC1CCCCC1` (some centres undefined), the TGI in the assay on SNB-78 CNS worked out at 70.1 µM.

As for `O=C(Nc1ccccc1)c1ccc(Cl)c([N+](=O)[O-])c1`, the TGI in the assay with XF 498 CNS is 43.4 µM; in the assay on DMS 114 small cell lung it was 33.2 µM; in the assay on DLD-1 colon, over 100 µM; in the assay with LXFL 529 NSCLC it was 18.5 µM; in the assay on SNB-78 CNS, 83.9 µM.

Turning to `CC(=O)O[C@H]1C(N(C)C(=O)c2ccccc2)CC[C@]2(C)C3CC[C@@]4(C)C(CC(O)[C@@H]4C(C)N(C)C)[C@@H]3CCC12` (some centres undefined), the TGI in the assay with XF 498 CNS, in the assay with DMS 114 small cell lung, in the assay with DLD-1 colon, in the assay with LXFL 529 NSCLC, in the assay on SNB-78 CNS and in the assay with HOP-18 NSCLC was over 100 µM throughout.

On to `NC(N)=N/N=C(/c1nc2ccc([N+](=O)[O-])cc2[nH]c1=O)C(O)c1ccco1` (centres undefined), for which the TGI in the assay with XF 498 CNS, with DMS 114 small cell lung, in the assay with DLD-1 colon, with LXFL 529 NSCLC, in the assay with SNB-78 CNS and in the assay on HOP-18 NSCLC was over 100 µM each time.

As for `C=CCNC(=S)N1CC(C)C(=O)Nc2ccccc21` (centres undefined), the TGI in the assay on XF 498 CNS, in the assay on DMS 114 small cell lung, in the assay with LXFL 529 NSCLC and in the assay on SNB-78 CNS was over 100 µM throughout.

For `CCN(CC)c1ccc(N=Nc2ccc(-c3nc4cccnc4o3)cc2)cc1`, the TGI in the assay with XF 498 CNS, in the assay on DMS 114 small cell lung, with DLD-1 colon, in the assay with LXFL 529 NSCLC and with SNB-78 CNS was over 100 µM in each case.

Turning to `CN1CCN(CCSC2Cc3cc(Cl)ccc3Sc3ccccc32)CC1` (centres undefined), the TGI with XF 498 CNS is 9.57 µM; in the assay on DMS 114 small cell lung, 11.2 µM; in the assay with DLD-1 colon, 10.4 µM; with LXFL 529 NSCLC, 7.34 µM; with HOP-18 NSCLC, 22.6 µM.

With `O=C(C(O)c1cn(Cc2ccccc2)c2ccccc12)N1CCCCC1` (centres undefined), the TGI is over 100 µM in the assay with XF 498 CNS; over 100 µM in the assay with DMS 114 small cell lung; over 100 µM in the assay on DLD-1 colon; over 100 µM in the assay on LXFL 529 NSCLC; over 10 µM in the assay on SNB-78 CNS; 90 µM in the assay on HOP-18 NSCLC.

Take `COc1ccc(NC(=O)C2C(=O)N(c3ccc(OC)cc3)C(=O)/C2=N/O)cc1` (centres undefined): the TGI is 18.7 µM in the assay with XF 498 CNS; over 100 µM in the assay on DMS 114 small cell lung; over 100 µM with DLD-1 colon; over 75 µM in the assay on LXFL 529 NSCLC; over 100 µM with SNB-78 CNS; 44.4 µM in the assay on HOP-18 NSCLC.

As for `O=c1cc(-c2ccccc2)[nH]c2cc(Cl)cc(Cl)c12`, the TGI in the assay with DMS 114 small cell lung, in the assay on DLD-1 colon, in the assay with LXFL 529 NSCLC and in the assay with HOP-18 NSCLC was over 100 µM each time.

In the case of `Cc1cc2nc3c(=O)n(C)c(=O)nc-3n(-c3ccc(Cl)cc3)c2cc1C`, the TGI worked out at 7.14 µM in the assay with XF 498 CNS; 13.7 µM with DMS 114 small cell lung; 42.1 µM in the assay on DLD-1 colon; 27.5 µM in the assay on LXFL 529 NSCLC; 45.9 µM in the assay with SNB-78 CNS; 19.9 µM in the assay with HOP-18 NSCLC.

`N#CCCc1nc2ccc(Br)cc2c(=O)n1CCO`: the TGI with XF 498 CNS, with DMS 114 small cell lung, in the assay on DLD-1 colon, in the assay with LXFL 529 NSCLC and with SNB-78 CNS was over 100 µM in each case.

Turning to `COP1(=O)CC2C(Cl)(Cl)C2(C)C1` (centres undefined), the TGI in the assay on XF 498 CNS, in the assay on DMS 114 small cell lung, in the assay with DLD-1 colon, in the assay with LXFL 529 NSCLC, in the assay on SNB-78 CNS and in the assay with HOP-18 NSCLC was over 100 µM in each case.

In the case of `C[CH2][Sn]1([CH2]C)[O]C(=O)[O][Sn]([CH2]C)([CH2]C)[O]1`, the GI50 with DMS 114 small cell lung was 12.6 µM; with DLD-1 colon, 25.6 µM; in the assay with LXFL 529 NSCLC, 8.78 µM; with SNB-78 CNS, 17.1 µM; in the assay on HOP-18 NSCLC, 17.2 µM. Also, the TGI in the assay on DMS 114 small cell lung is 26.7 µM; with DLD-1 colon it was over 57.8 µM; in the assay on LXFL 529 NSCLC it was 21.7 µM; in the assay with SNB-78 CNS it was 37.4 µM; with HOP-18 NSCLC, 31.2 µM.

`CCC(=O)c1cn(C)c(=O)c2ccccc12`: the TGI with XF 498 CNS, in the assay on DMS 114 small cell lung, in the assay on DLD-1 colon, in the assay with LXFL 529 NSCLC and in the assay with SNB-78 CNS was over 100 µM in each case.

Consider `CCOC(=O)CCC(=O)C1c2cccc(O)c2C(=O)c2c(O)cccc21`, for which the TGI in the assay with XF 498 CNS was 0.551 µM; in the assay on DMS 114 small cell lung, 1.65 µM; with DLD-1 colon, 3.21 µM; with HOP-18 NSCLC, 3.33 µM.

The values above are taken from PubChem BioAssay (NCI).
